Experimental data taken from ChEMBL document CHEMBL5260817, “Polyamine-based analogs and conjugates as antikinetoplastid agents” (Eur J Med Chem, 2017).

Experiments:
Leishmania major = test: Antiprotozoal activity against Leishmania major amastigotes; assay type: functional, organism-based
Trypanosoma brucei [1] = test: Antiprotozoal activity against Trypanosoma brucei clone 427-221a; assay type: functional, organism-based
HL-60 = test: Anticancer activity against human HL-60 cells assessed as cell growth inhibition by trypan blue staining based assay; assay type: functional
[2] = Inhibition of Trypanosoma brucei rhodesiense TryR
[3] = Inhibition of TryR (unknown origin); assay type: functional
L6 = test: Anticancer activity against rat L6 cells assessed as cell growth inhibition; assay type: functional, cell-based
[4] = test system: Trypanosoma brucei rhodesiense; test: Antiprotozoal activity against Trypanosoma brucei rhodesiense STIB900 strain; assay type: functional, organism-based
[5] = Anticancer activity against human CRL-8155 cells assessed as cell growth inhibition; assay type: functional, cell-based; details: CRL8155
[6] = Half life in BALB/c mouse plasma infected with Trypanosoma brucei 427 strain at 25 mg/kg/day, sc measured after 3 days; assay type: ADME, organism-based; details: time 3 day
[7] = Inhibition of Trypanosoma brucei MetRS in presence of ATP
Trypanosoma brucei [8] = test: Trypanocidal activity against Trypanosoma brucei trypomastigotes; assay type: functional, organism-based
[9] = test system: Trypanosoma brucei brucei; test: Antiprotozoal activity against Trypanosoma brucei brucei Lab 110 EATRO strain; assay type: functional, organism-based
Leishmania donovani = test: Antiprotozoal activity against Leishmania donovani promastigote measured after 72 hrs by LDH assay; assay type: functional, organism-based
Trypanothione reductase = Trypanothione reductase (Trypanosoma brucei brucei, UniProt P39051); test: Inhibition of Trypanosoma brucei TryR
Trypanosoma brucei [10] = test: Trypanocidal activity against Trypanosoma brucei; assay type: functional, organism-based

Sequence of Trypanothione reductase (P39051 whole entry): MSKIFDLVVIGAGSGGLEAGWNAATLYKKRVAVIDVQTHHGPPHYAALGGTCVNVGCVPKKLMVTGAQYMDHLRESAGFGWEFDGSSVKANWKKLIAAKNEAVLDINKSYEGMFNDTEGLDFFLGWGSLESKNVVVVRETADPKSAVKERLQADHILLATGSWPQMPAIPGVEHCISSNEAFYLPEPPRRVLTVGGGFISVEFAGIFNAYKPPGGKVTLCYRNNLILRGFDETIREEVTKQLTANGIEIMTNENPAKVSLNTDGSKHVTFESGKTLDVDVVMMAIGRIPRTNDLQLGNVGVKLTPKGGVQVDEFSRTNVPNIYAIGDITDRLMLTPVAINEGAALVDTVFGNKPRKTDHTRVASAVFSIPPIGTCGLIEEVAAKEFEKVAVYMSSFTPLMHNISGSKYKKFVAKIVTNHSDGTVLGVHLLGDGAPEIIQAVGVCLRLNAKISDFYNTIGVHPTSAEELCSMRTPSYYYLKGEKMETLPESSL

With `COc1ccc2nc3cc(Cl)ccc3c(NCCCN(C)CCCNc3c4ccc(Cl)cc4nc4ccc(OC)cc34)c2c1` the IC50 (Leishmania major) was 6 µM, the IC50 (Trypanosoma brucei [1]) was 1 nM and the IC50 (HL-60) was 1000 nM.

`C[N+](C)(CCCNc1cc(Cl)ccc1Sc1ccccc1)Cc1ccc(Cl)c(Cl)c1` showed an IC50 [2] of 5 µM.

For `C[N+](C)(CCCNc1cc(Cl)ccc1Sc1ccccc1)Cc1ccc([N+](=O)[O-])o1`, the IC50 [3] was 9 µM, the IC50 (L6) was > 170 µM and the IC50 [4] was 600 nM.

In the case of `Oc1cc(NCCCNCc2cc(Cl)cc(Cl)c2)nc2ccccc12`, the IC50 [5] is reported as > 20 µM, the half-life [6] is reported as 60 min and the IC50 [7] is reported as 8 nM. For the same compound, the IC50 (Trypanosoma brucei [8]) was 4 nM.

`N=C(NC1CCCCCC1)c1ccc(N2CCN(c3ccc(C(=N)NC4CCCCCC4)cc3)CC2)cc1` gave an IC50 [9] of 18 nM and an IC50 (Leishmania donovani) of 4.76 µM.

`Clc1ccc2c(c1)N(CCCN1CCN(CCCc3ccccc3)CC1)c1ccccc1S2` gave an IC50 (Trypanothione reductase) of 750 nM and an IC50 (Trypanosoma brucei [10]) of 770 nM.
